Tested on: mouse dextran sodium sulfate-induced chronic inflammatory bowel disease model
Test: not given
Details: once-daily doses of 3 and 10 mg/kg; efficacy similar to sulfasalazine; cited from earlier work

Row | Structure (SMILES) | disease activity index score | neutrophil infiltration
1 | O=c1nc(OC[C@@H]2COCCO2)cc2n1CCc1cc(C#CC3CC3)ccc1-2 [GLPG1205] | reduced | reduced

Target: T1, human GPR84 receptor (Homo sapiens, UniProt Q9NQS5)
T1 construct: host or cells: HEK293 cells, transient transfection
Test: Gαi biosensor BRET assay in HEK293 cells transfected with GPR84, stimulated with the GPR84 agonist ZQ-16
Assay type: cell-based
Details: 200 nmol/L ZQ-16

T1 sequence (Q9NQS5 whole entry): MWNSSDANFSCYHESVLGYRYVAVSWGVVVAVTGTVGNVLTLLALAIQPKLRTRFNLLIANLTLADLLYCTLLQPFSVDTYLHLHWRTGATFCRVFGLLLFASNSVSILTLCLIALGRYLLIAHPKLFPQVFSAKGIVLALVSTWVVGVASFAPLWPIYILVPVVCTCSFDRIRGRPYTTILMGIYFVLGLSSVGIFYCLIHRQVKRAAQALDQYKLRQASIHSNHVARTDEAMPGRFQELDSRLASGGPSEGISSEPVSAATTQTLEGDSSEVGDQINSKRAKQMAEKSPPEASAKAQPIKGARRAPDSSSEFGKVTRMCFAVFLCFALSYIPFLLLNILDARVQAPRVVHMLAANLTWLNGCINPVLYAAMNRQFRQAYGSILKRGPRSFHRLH

Row | IC50 | Structure (SMILES)
2 | 1000 to 3000 nM | O=C(Cn1cc(-c2c(OC3CC3)cc(C#CC3CC3)c[n+]2[O-])nn1)N1CCCC1 [Compound I-253]

Same assay, conditions: HEK293, single concentration, concentration class A = 2 μM, 200 nmol/L ZQ-16

Row | Structure (SMILES) | inhibition at 2 µM
3 | O=C(Cn1cc(-c2nc(O)c(C#CC3CC3)cc2OC2CC2)nn1)N1CCCC1 [Compound I-249] | ≤ 25%
4 | Cc1ccc(C#CC2CC2)cc1C(F)(F)c1cn(CC2OCC3(CC3)CO2)nn1 [Compound I-264] | > 75%

The next lines start with the values.

Row | inhibition at 2 µM | Structure (SMILES)
5 | ≤ 25% | CN(C)C(=O)Cn1cc(-c2nc(O)c(C#CC3CC3)cc2OC2CC2)nn1 [Compound I-251]
6 | 25 to 50% | Cc1ccc(C#CC2CC2)cc1C(F)(F)c1cn(CC(=O)N(C)C)nn1 [Compound I-263]

Same assay, conditions: HEK293, single concentration, concentration class F = 10 μM, 200 nmol/L ZQ-16

Row | Structure (SMILES) | inhibition at 10 µM
7 | O=C(Cn1cc(-c2ncc(C#CC3CC3)cc2OC2CC2)nn1)N1C[C@H](O)[C@@H](O)C1 [Compound I-247] | > 75%
8 | O=C(Cn1cc(-c2ncc(C#CC3CC3)cc2OC2CC2)nn1)N1C[C@@H](O)[C@@H](O)C1 [Compound I-248] | > 75%
9 | O=C(Cn1cc(-c2ncc(C#CC3(O)CC3)cc2OC2CC2)nn1)N1CCCC1 [Compound I-250] | > 75%
10 | CN(C)C(=O)Cn1cc(-c2ncc(C#CC3(O)CC3)cc2OC2CC2)nn1 [Compound I-252] | > 75%
11 | O=C(Cn1cc(-c2c(OC3CC3)cc(C#CC3CC3)c[n+]2[O-])nn1)N1CCCC1 [Compound I-253] | > 75%
12 | C(#CC1CC1)c1ccc(-c2nnc(-c3cn(CC4OCC5(CC5)CO4)nn3)o2)cc1 [Compound I-254] | 25 to 50%
13 | Cc1cc(C#CC2CC2)cnc1-c1nnc(-c2cn(CC3OCC4(CC4)CO3)nn2)o1 [Compound I-256] | ≤ 25%
14 | N=C(N)c1cnc(-c2cn(CC3OCC4(CC4)CO3)nn2)c(OC2CC2)c1 [Compound I-265] | 25 to 50%
15 | CN1CCN(C(=O)Cn2cc(-c3ncc(C#CC4CC4)cc3OC3CC3)nn2)CC1 [Compound I-266] | 25 to 50%
16 | O=C(Cn1cc(-c2ncc(C#CC3CC3)cc2OC2CC2)nn1)N1CCCCC1 [Compound I-267] | > 75%
17 | O=C(Cn1cc(-c2ncc(C#CC3CC3)cc2OC2CC2)nn1)N1CCOCC1 [Compound I-268] | 25 to 50%

Second part, the compound after the results:

Row | inhibition at 10 µM | Structure (SMILES)
18 | 50 to 75% | Cc1ccc(C#CC2CC2)cc1-c1nnc(-c2cn(CC3OCC4(CC4)CO3)nn2)o1 [Compound I-255]
19 | > 75% | Fc1cc(C#CC2CC2)ccc1-c1nnc(-c2cn(CC3OCC4(CC4)CO3)nn2)o1 [Compound I-257]
20 | 25 to 50% | Fc1ccc(C#CC2CC2)cc1-c1nnc(-c2cn(CC3OCC4(CC4)CO3)nn2)o1 [Compound I-258]
21 | ≤ 25% | Cc1cc(C#CC2CC2)ccc1-c1nnc(-c2cn(CC(=O)N(C)C)nn2)o1 [Compound I-259]
22 | ≤ 25% | Cc1ccc(C#CC2CC2)cc1-c1nnc(-c2cn(CC(=O)N(C)C)nn2)o1 [Compound I-260]
23 | ≤ 25% | CN(C)C(=O)Cn1cc(-c2nnc(-c3ccc(C#CC4CC4)cc3F)o2)nn1 [Compound I-261]
24 | ≤ 25% | CN(C)C(=O)Cn1cc(-c2nnc(-c3cc(C#CC4CC4)ccc3F)o2)nn1 [Compound I-262]

From patent publication US20260256747A1, “ARYL-TRIAZOLYL AND RELATED GPR84 ANTAGONISTS AND USES THEREOF” (Liminal BioSciences Limited, priority 2022, published 2026)
